In patent US20250090699A1, “FAP TARGETING CYCLIC PEPTIDES AND CONJUGATES THEREOF” (Novartis AG, priority 2023, published 2025) one finds IC50 and Kd data, which are given here for four compounds.

The target of assay [1] is T1, human FAP (Homo sapiens, UniProt Q12884).
T1 construct: the biotinylated His, Avi tag, human FAP (26-760, FAP-H82Q6); His; Avi tag (biotinylated); purchased AcroBiosystems FAP-H82Q6
T1 sequence (Q12884 26-760): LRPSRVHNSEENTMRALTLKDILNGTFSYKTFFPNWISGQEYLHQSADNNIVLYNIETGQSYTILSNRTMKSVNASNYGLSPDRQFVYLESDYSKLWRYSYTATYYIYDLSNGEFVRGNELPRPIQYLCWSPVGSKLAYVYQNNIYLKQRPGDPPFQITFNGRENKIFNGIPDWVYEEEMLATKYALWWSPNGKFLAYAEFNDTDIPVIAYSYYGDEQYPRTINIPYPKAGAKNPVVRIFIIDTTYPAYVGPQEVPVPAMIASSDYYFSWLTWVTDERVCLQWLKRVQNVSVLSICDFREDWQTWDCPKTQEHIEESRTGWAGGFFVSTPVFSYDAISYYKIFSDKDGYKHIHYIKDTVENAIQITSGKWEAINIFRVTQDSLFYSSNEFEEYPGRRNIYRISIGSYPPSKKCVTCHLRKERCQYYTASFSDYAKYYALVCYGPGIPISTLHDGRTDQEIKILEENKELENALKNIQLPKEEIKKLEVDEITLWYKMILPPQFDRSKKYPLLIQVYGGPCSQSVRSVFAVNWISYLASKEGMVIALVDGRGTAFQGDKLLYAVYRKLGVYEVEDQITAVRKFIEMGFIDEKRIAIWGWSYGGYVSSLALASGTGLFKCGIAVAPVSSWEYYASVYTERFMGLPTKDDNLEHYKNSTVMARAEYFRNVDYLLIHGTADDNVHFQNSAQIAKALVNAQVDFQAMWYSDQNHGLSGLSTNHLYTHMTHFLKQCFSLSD
Description: Enzymatic FAP competition assay (Z-Gly-Pro-AMC fluorescence), human FAP. It counts as biochemical. The following applies: read-out: h. FAP, Enz., IC50. As for the experimental part:
(§1) Peptide potencies (IC50) to inhibit the FAP enzymatic activity were determined using a fluorescence-based assay towards the biotinylated His, Avi tag, human FAP (26-760, FAP-H82Q6) and the biotinylated His, Avi tag, mouse FAP (26-761, FAP-M82Q5). Standard assay conditions consisted of 20 μL total volume in white 384-well plates (Greiner, Ref. 784075), in 50 mM phosphate buffer pH 7.5 containing 150 mM NaCl, 0.05% Tween20 and 1% final DMSO. Tested peptides at 14 different concentrations up to 1 μM were added to 0.01 nM human or mouse FAP. The peptides were incubated for 24 hours together with the protein before adding the substrate 50 μM Z-Gly-Pro-AMC (I-1145 from Bachem). Samples were then incubated at 22-24° C. for 4 h before reading the fluorescence at excitation wavelength of 380 nm and emission wavelength of 460 nm using the Tecan Infinite® M1000 PRO. The high control (100% activity) was not containing any peptide, and an internal potent peptide was added at 10 μM concentration for the low control (100% inhibition). IC50 values were calculated by curve fitting using an in-house developed software (Novartis Helios software application) using the method described by Fomenko et al., 2006 (regression algorithms for nonlinear dose-response curve fitting). Following normalization of activity values for the wells to % inhibition (% inhibition=[(high control-sample)/(high control-low control)]x 100). IC50 fitting was carried out from the duplicated points.

Assay [2] addresses T2, mouse FAP (Mus musculus, UniProt P97321).
T2 construct: biotinylated His, Avi tag, mouse FAP (26-761, FAP-M82Q5); His; Avi tag (biotinylated); purchased AcroBiosystems FAP-M82Q5
T2 sequence (P97321 26-761): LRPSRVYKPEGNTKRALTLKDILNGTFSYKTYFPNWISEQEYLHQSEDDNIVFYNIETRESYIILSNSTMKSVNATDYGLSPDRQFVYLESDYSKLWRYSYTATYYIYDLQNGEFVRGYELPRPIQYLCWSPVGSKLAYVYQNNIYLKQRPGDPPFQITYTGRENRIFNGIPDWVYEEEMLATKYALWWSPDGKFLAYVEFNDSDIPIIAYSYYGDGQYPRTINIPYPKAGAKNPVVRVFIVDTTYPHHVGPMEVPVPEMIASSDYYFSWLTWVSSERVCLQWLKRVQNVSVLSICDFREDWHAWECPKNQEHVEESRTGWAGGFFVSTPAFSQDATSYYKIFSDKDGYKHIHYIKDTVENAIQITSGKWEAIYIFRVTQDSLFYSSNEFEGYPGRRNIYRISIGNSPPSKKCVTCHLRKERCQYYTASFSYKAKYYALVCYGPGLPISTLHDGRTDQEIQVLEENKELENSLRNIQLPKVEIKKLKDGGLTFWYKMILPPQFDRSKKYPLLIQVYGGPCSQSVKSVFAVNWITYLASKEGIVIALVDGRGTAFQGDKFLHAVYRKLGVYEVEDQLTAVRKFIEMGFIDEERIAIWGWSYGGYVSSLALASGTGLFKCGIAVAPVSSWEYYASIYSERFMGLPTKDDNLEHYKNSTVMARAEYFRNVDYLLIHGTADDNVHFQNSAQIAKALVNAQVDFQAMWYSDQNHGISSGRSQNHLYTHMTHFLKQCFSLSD
As to the kind of experiment: Surface plasmon resonance (SPR) for peptide affinity, mouse FAP. It counts as binding. As for the experimental part: Peptide affinities (KD) were determined by SPR using a Biacore™ 8K device (Cytiva) towards the following proteins: biotinylated His, Avi tag, human FAP (26-760, FAP-H82Q6), biotinylated His, Avi tag, mouse FAP (26-761, FAP-M82Q5), His tag, human DPP4 (34-766, DP4-H82E3), all purchased from AcroBiosystems and His tag, mouse DPP4 (29-760, 954-SE) from R&D Systems. The FAP proteins and their homologous were diluted to a concentration of 2 μg/mL into acetate buffer pH 5.5, then immobilized onto a CM5 sensorchip (Cytiva, BR-1005-30) to reach a response around 2000 R U. The running buffer HBS-EP+pH 7.6 (20× from Teknova CAT. No: H8022) contained 10 mM HEPES pH 7.6, 150 mM NaCl, 3 mM EDTA, 0.05% Tween20 and 2% DMSO. Experiments were carried out at 25° C. using a flow rate of 30 μL/min. Compounds were tested in single cycle kinetic mode at 8 different concentrations. Curve fitting was performed using the Biacore™ 8K evaluation software. The sensorgrams were fitted by applying a 1:1 binding model to calculate kinetic rate constants and equilibrium dissociation constants (KD).
For this assay, the setup had the same conditions (flow rate, running buffer, peptide dilution) as described above for the CM5 method. The oligo CAP reagent obtained in the CAPture Kit (Ref. 28920234) was 1/5 diluted into running buffer and used with a contact time of 300 s at a flow rate of 2 μL/min. The human and mouse FAP constructs described above were used (from AcroBiosystems or produced in house). The FAP proteins were diluted to a concentration of 2 μg/mL into acetate pH 5.5, 0.05% Tween20 and used with a contact time of 600 s at a flow rate of 10 μL/min. The peptides were tested with an association time of 280 s followed by a dissociation time of 3000 s at a flow rate of 30 μL/min. The regeneration was done using the regeneration solution (8 M guanidine-HCl, 1 M NaOH) as obtained with a contact time of 270 s at a flow rate of 10 μL/min. […] The compounds marked with an asterisk were tested against human and mouse DDP4.

For assay [3], the target named is T2, mouse FAP. Description: Enzymatic FAP competition assay (Z-Gly-Pro-AMC fluorescence), mouse FAP. It counts as biochemical. The following applies: read-out: m. FAP, Enz., IC50. As for the experimental part: as §1

Counter-ions that a name gives are not always drawn. Starred links: 1 amine or outer side, 2 acyl side, 3 side chain; linkers in the order of their positions; H or OH if unused. Non-standard residues stand in square brackets, D forms with d. Residues, ends and D or L forms follow the SMILES beside them. Groups on a side chain read outwards from the residue. *: point of attachment. DOTA = O=C(O)CN1CCN(CC(=O)O)CCN(CC(=O)*)CCN(CC(=O)O)CC1; Pyrrolidine(2S-CN,4,4-F2) = N#C[C@@H]1CC(F)(F)CN1*; Trp(7-aza) = N[C@@H](Cc1c[nH]c2ncccc12)C(=O)O; Phe(4-CH2NH2) = NCc1ccc(C[C@H](N)C(=O)O)cc1; Piperazinyl(4-CH2COOH) = O=C(O)CN1CCN(*)CC1; NMeF = CN[C@@H](Cc1ccccc1)C(=O)O; Ahp(2) = CCCCC[C@H](N)C(=O)O; Orn = NCCC[C@H](N)C(=O)O; AEEA = NCCOCCOCC(=O)O; CO = O=C([*:1])[*:2]

For the compound `CCCCC[C@@H]1NC(=O)[C@H](Cc2ccc(O)cc2)NC(=O)[C@H](Cc2ccccc2)N(C)C(=O)CNC(=O)[C@H](CCCCN)NC(=O)[C@H]2CCCN2C(=O)[C@H](CC(=O)O)NC(=O)[C@H](Cc2ccc(O)cc2)NC(=O)CNC(=O)[C@H](Cc2c[nH]c3ncccc23)NC1=O` [Example A26, 2-((3S,9S,12S,15S,18S,24S,27S,32aR)-18-((1H-pyrrolo[2,3-b]pyridin-3-yl)methyl)-3-(4-aminobutyl)-9-benzyl-12,24-bis(4-hydroxybenzyl)-8-methyl-1,4,7,10,13,16,19,22,25,28-decaoxo-15-pentyldotriacontahydropyrrolo[1,2-a][1,4,7,10,13,16,19,22,25,28]decaazacyclotriacontin-27-yl)acetic acid TFA salt] (cyclo([Ahp(2)][Trp(7-aza)]GYD[dP]KG[NMeF]Y)), the IC50 worked out at 0.47 nM in assay [1] and 1.6 nM in assay [3]. This compound returned a Kd in assay [2] of 2.7 nM.
For `CCCCC[C@@H]1NC(=O)[C@H](Cc2ccc(O)cc2)NC(=O)[C@H](Cc2ccccc2)N(C)C(=O)CNC(=O)CNC(=O)[C@H]2CCCN2C(=O)[C@H](CC(=O)O)NC(=O)[C@H](CCCNC(=O)N2CCN(CC(=O)O)CC2)NC(=O)CNC(=O)[C@H](Cc2c[nH]c3ccccc23)NC1=O` [Example A4, Gly-Gly-NMePhe-Tyr-Ahp-Trp-Gly-Orn(COPipzaa)-Asp-D-Pro, TFA salt] (cyclo([Ahp(2)]WG[Orn]([CO-Piperazinyl(4-CH2COOH)])D[dP]GG[NMeF]Y)) the same measures were 0.203 nM, 0.57 nM and 0.47 nM.
For `CN1C(=O)CNC(=O)[C@H](CCCCN)NC(=O)[C@H]2CCCN2C(=O)[C@H](CC(=O)O)NC(=O)[C@H](Cc2ccc(O)cc2)NC(=O)CNC(=O)[C@H](Cc2c[nH]c3ccccc23)NC(=O)[C@H](CCC(=O)N2CC(F)(F)C[C@H]2C#N)NC(=O)[C@H](Cc2ccc(O)cc2)NC(=O)[C@@H]1Cc1ccccc1` [Example A29, Lys-Gly-NMePhe-Tyr-Q(Pyrro(2CN4F2))-Trp-Gly-Tyr-Asp-D-Pro] (cyclo(KG[NMeF]YE(Pyrrolidine(2S-CN,4,4-F2))WGYD[dP])), the values for the IC50 in assay [1] and in assay [3] were 0.059 nM and 0.082 nM, respectively. Moreover, in assay [2], the Kd is 0.044 nM.
For `CCCCC[C@@H]1NC(=O)[C@H](Cc2ccc(CNC(=O)COCCOCCNC(=O)CN3CCN(CC(=O)O)CCN(CC(=O)O)CCN(CC(=O)O)CC3)cc2)NC(=O)[C@H](Cc2ccccc2)N(C)C(=O)CNC(=O)CNC(=O)[C@H]2CCCN2C(=O)[C@H](CC(=O)O)NC(=O)[C@H](Cc2ccc(O)cc2)NC(=O)CNC(=O)[C@H](Cc2c[nH]c3ccccc23)NC1=O` [Example B16, Gly-Gly-NMePhe-F(4amPEG2NHDOTA)-Ahp-Trp-Gly-Tyr-Asp-D-Pro, TFA salt] (cyclo([Ahp(2)]WGYD[dP]GG[NMeF][Phe(4-CH2NH2)]([AEEA-DOTA]))) the same measures were 0.009 nM, 0.03 nM and 0.01 nM.
